Reference: the NIST ThermoML archive (doi:10.1021/je301087w)
± gives the expanded uncertainty stated by the source.

What was measured:
[1] = Crystal; DTA
[2] = Molar enthalpy of transition or fusion; conditions: Crystal; DSC

SMILES	Normal melting temperature [1] [°C]	Molar enthalpy of transition or fusion [2] [kcal/mol]
C1COCCOCCOCCOCCOCCO1.O.O.O.O.O.O.O.O.O.O.O.O [1,4,7,10,13,16-hexaoxacyclooctadecane dodecahydrate]	9.90 ± 0.53	4.66 ± 0.932
C1COCCOCCOCCOCCOCCO1.O.O.O.O.O.O.O.O [1,4,7,10,13,16-hexaoxacyclooctadecane octahydrate]	17.10 ± 0.53	2.8 ± 0.574
C1COCCOCCOCCOCCOCCO1 [1,4,7,10,13,16-hexaoxacyclooctadecane]	39.10 ± 0.53	8.48 ± 0.741
